The species named for experiment [1] is Homo sapiens. As to the kind of experiment: Activation of human mitochondrial NADP-ME E59L mutant expressed in Escherichia coli XL-1 by spectrophotometry.
The species entered for experiment [2] is Homo sapiens. As to the kind of experiment: Inhibition of human mitochondrial NADP-ME E59L mutant expressed in Escherichia coli XL-1 assessed as residual enzyme activity by spectrophotometry in presence of fumarate.
The species named for experiment [3] is Homo sapiens. As to the kind of experiment: Inhibition of human mitochondrial NADP-ME E59L mutant expressed in Escherichia coli XL-1 assessed as residual enzyme activity by spectrophotometry in absence of fumarate.

Activity calls are given as the source filed them. The rule behind the calls is not given here.

Consider `O=C(O)/C=C/C(=O)O`, for which, in experiment [1], the result was inactive.

With `O=C(O)CC(=O)O`, the outcome in experiment [2] and in experiment [3] was Active.

As to `O=C(O)/C=C/CC(=O)O`, the outcome in experiment [2] and in experiment [3] was Active.

As for `O=C(O)/C=C\C(=O)O`, the result in experiment [2] and in experiment [3] was Active.

(Values after ChEMBL document CHEMBL1153457, “Effects of structural analogues of the substrate and allosteric regulator of the human mitochondrial NAD(P)+-dependent malic enzyme” (Bioorg Med Chem, 2009).)
